Data published in patent US11918662B2, “Heterocyclic compounds and imaging agents for imaging huntingtin protein” (CHDI Foundation, Inc., priority 2020, dated 2024).

Target: T1, MBP-HTT(1-89)Q46-His(6×) (“Exon1-Q46”) protein aggregates (Homo sapiens, UniProt P42858, INS38QQQQQQQQQQQQQQQQQQQQQQQQQ)
T1 construct: MBP-HTT(1-89)Q46-His(6×); His(6×) (C); made in house
Experiment: Exon1-Q46 Radioligand Binding Assay
Conditions: displacement of 0.3 nM [3H3-methyl]-5-((5-methoxypyridin-2-yl)methoxy)-2-(pyrazin-2-yl)benzo[d]oxazole from 1 μM aggregated Exon1-Q46, 60 minutes at 37° C.; read-out: Potency Range (IC50)

T1 sequence (P42858 with tags, fused parts or gaps with the stated changes limits assumed): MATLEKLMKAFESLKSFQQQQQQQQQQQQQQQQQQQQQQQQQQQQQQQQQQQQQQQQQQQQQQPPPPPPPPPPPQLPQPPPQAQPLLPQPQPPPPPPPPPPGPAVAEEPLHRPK

IC50	Structure (SMILES)
< 100 nM	Cn1ncc2c(=O)n(CCC(=O)Nc3ccccc3F)c3cc(F)ccc3c21 [Example 9-11]
< 100 nM	C[C@H]1CN(C(=O)CCCn2c(=O)c3cccn3c3ccc(F)cc32)C[C@H](C)O1 [Example 1-4]
< 100 nM	O=C(CCn1c(=O)c2cc(F)cn2c2ccc(F)cc21)N1Cc2cccnc2C1 [Example 3-65]
< 100 nM	O=C(CCn1c(=O)c2cccn2c2ccc(F)cc21)N1CCc2ccccc21 [Example 3-46]
100 to 500 nM	CNC(=O)CCCn1c(=O)c2cccn2c2ccc(F)cc21 [Example 1-33]
< 100 nM	Cc1nn(C)c2c1c(=O)n(CCC(=O)Nc1ccc(F)cc1F)c1cc(F)ccc21 [Example 9-26]
< 100 nM	O=C(CCCn1c(=O)c2cccn2c2ccc(F)cc21)N1Cc2ccccc2C1 [Example 1-13]
< 100 nM	COc1ccc(NC(=O)CCn2c(=O)c3c(C)ccn3c3ccc(F)cc32)nc1 [Example 3-60]
< 100 nM	O=C(CCn1c(=O)c2cccn2c2ccc(F)cc21)Nc1cccnc1 [Example 3-23]
< 100 nM	COc1ccc(NC(=O)CCn2c(=O)c3cccn3c3ccc(F)cc32)cc1 [Example 3-3]
< 100 nM	Cc1ccc(NC(=O)CCCn2c(=O)c3cccn3c3cccnc32)cc1 [Example 4-6]
100 to 500 nM	COCCNC(=O)CCCn1c(=O)c2cccn2c2ccc(F)cc21 [Example 1-31]
< 100 nM	CC1CCC(N(C)C(=O)CCn2c(=O)c3cccn3c3ccc(F)cc32)CC1 (stereo not drawn) [Example 3-45]
< 100 nM	COc1ccc(N(C)C(=O)CCn2c(=O)c3cccn3c3ccc(F)cc32)cc1 [Example 3-14]
< 100 nM	CN(C)C(=O)CCCn1c(=O)c2cccn2c2ccc(F)cc21 [Example 1-40]
